We go through 28 compounds from patent US5583127A, “17-iminomethylalkenyl-5 β, 14 β-androstane and 17-iminoalkyl-5 β, 14 β-androstane derivatives active on the cardiovascular system, and pharmaceutical compositions containing same” (Sigma-Tau Industrie Farmaceutiche Riunite S.p.A., priority 1993, dated 1996).

Where two headings read alike, the source gives them in different places.

Test [1] has as its target Na^+, K^+ -ATPase receptor (Homo sapiens, UniProt P05023). The test is described as follows: displacement of the specific 3H-ouabain binding from the Na+,K+-ATPase receptor.
Test [2] has as its target purified Na^+,K^+ -ATPase (Homo sapiens, UniProt P05023). The test is described as follows: inhibition of the activity of the purified Na+,K+-ATPase (% hydrolysis of 32P-ATP). The format is biochemical. As to conditions: read-out: Inhibitory Activity log IC50 (converted).
[3] abbreviates: displacement of specific 3H-ouabain binding, read-out: Binding ^3 H-Ouab. Displacement log IC50 (converted).

The term IC50 denotes the concentration that gives 50% inhibition. `C[C@]12CC[C@H](O)C[C@H]1CC[C@@H]1[C@@H]2CC[C@]2(C)[C@@H](CCC=NNC(=N)N)CC[C@]12O` (mixture of isomers) [Comp. 1-bi, (EZ)-17β-(3-Guanidinoiminopropyl)-5β-androstane-3β,14β-diol]: the IC50 in test [1] (setting [3]) was 126 nM; in test [2] (purified Na+,K+-ATPase), 2000 nM.

As to `CN(C)CCON=C/C=C/[C@H]1CC[C@]2(O)[C@@H]3CC[C@@H]4C[C@@H](OCCCN)CC[C@]4(C)[C@H]3CC[C@]12C` (mixture of isomers) [Comp. 1-ce, 3β-(3-Aminopropoxy)-17β-[3-(EZ)-(2-dimethylaminoethoxy-imino)-1-(E)-propenyl]-5β-androstane-14β-ol], the half-maximal inhibitory concentration (IC50) in test [1] (setting [3]) is 15.8 nM; in test [2] (purified Na+,K+-ATPase), 20 nM.

For `CN(C)CCON=C/C=C/[C@H]1CC[C@]2(O)[C@@H]3CC[C@@H]4C[C@@H](O)CC[C@]4(C)[C@H]3CC[C@]12C` (mixture of isomers) [Comp. I-aq, 17β-[3-(EZ)-(2-Dimethylaminoethoxyimino)-1-(E)-propenyl]-5β-androstane-3β,14β-diol], the results for the IC50 in test [1] (setting [3]) and in test [2] (purified Na+,K+-ATPase) were 25.1 nM and 31.6 nM, respectively.

Consider `CN(C)CCCON=C/C=C/[C@H]1CC[C@]2(O)[C@@H]3CC[C@@H]4C[C@@H](O)CC[C@]4(C)[C@H]3CC[C@]12C` (mixture of isomers) [Comp. I-ar, 17β-[3-(3-(EZ)-Dimethylaminopropoxyimino)-1-(E)-propenyl]-5β-androstane-3β,14β-diol], for which the IC50 in test [1] (setting [3]) was 63.1 nM; in test [2] (purified Na+,K+-ATPase), 126 nM.

Consider `C[C@]12CC[C@H](O)C[C@H]1CC[C@@H]1[C@@H]2CC[C@]2(C)[C@@H](/C=C/C=NOCCNC(=N)N)CC[C@]12O` (mixture of isomers) [Comp. I-as, 17β-[3-(EZ)-(2-Guanidinoethoxyimino)-1-(E)-propenyl]-5β-androstane-3β,14β-diol], for which the IC50 in test [1] is 100 nM; in test [2] (purified Na+,K+-ATPase), 158 nM.

In the case of `C[C@]12CC[C@H](O)C[C@H]1CC[C@@H]1[C@@H]2CC[C@]2(C)[C@@H](/C=C/C=NOCCCNC(=N)N)CC[C@]12O` (mixture of isomers) [Comp. I-at, 17β-[3-(EZ)-(3-Guanidinopropoxyimino)-1-(E)-propenyl]-5β-androstane-3β,14β-diol], the IC50 was 158 nM in test [1] (setting [3]) and 316 nM in test [2] (purified Na+,K+-ATPase).

Turning to `C[C@]12CC[C@H](O)C[C@H]1CC[C@@H]1[C@@H]2CC[C@]2(C)[C@@H](CC=NNC(=N)N)CC[C@]12O` (mixture of isomers) [Comp. I-bc, (EZ)-17β-(2-Guaidinoimino)ethyl-5β-androstane-3β,14β-diol], the figures for the IC50 in test [1] (setting [3]) and in test [2] (purified Na+,K+-ATPase) were 79.4 nM and 398 nM, respectively.

As to `C[C@]12CC[C@H](O)C[C@H]1CC[C@@H]1[C@@H]2CC[C@]2(C)[C@@H](CC=NNC3=NCCN3)CC[C@]12O` (mixture of isomers) [Comp. I-bd, (EZ)-17β-[2-(2-Imidazolin-2-yl)hydrazonoethyl]-5β-androstane-3β,14β-diol], the values for the IC50 in test [1] (setting [3]) and in test [2] (purified Na+,K+-ATPase) were 126 nM and 631 nM, respectively.

As for `C[C@]12CC[C@H](O)C[C@H]1CC[C@@H]1[C@@H]2CC[C@]2(C)[C@@H](CC=NOCCN)CC[C@]12O` (mixture of isomers) [Comp. I-bf, (EZ)-17β-[2-(2-Aminoethoxyimino)ethyl]-5β-androstane-3β,14β-diol], the IC50 was 25.1 nM in test [1] (setting [3]) and 316 nM in test [2] (purified Na+,K+-ATPase).

In the case of `C[C@]12CC[C@H](O)C[C@H]1CC[C@@H]1[C@@H]2CC[C@]2(C)[C@@H](CC=NOCCCN)CC[C@]12O` (mixture of isomers) [Comp. I-bg, (EZ)-17β-[2-(3-Aminopropoxyimino)ethyl]-5β-androstane-3β,14β-diol], the results for the IC50 in test [1] and in test [2] (purified Na+,K+-ATPase) were 50.1 nM and 398 nM, respectively.

Take `CN(C)CCON=CC[C@H]1CC[C@]2(O)[C@@H]3CC[C@@H]4C[C@@H](O)CC[C@]4(C)[C@H]3CC[C@]12C` (mixture of isomers) [Comp. I-bh, (EZ)-17β-[2-(2-Dimethylaminoethoxyimino)ethyl]-5β-androstane-3β,14β-diol]: the IC50 in test [1] (setting [3]) is 39.8 nM; in test [2] (purified Na+,K+-ATPase), 631 nM.

Consider `C[C@]12CC[C@H](O)C[C@H]1CC[C@@H]1[C@@H]2CC[C@]2(C)[C@@H](CCC=NNC3=NCCN3)CC[C@]12O` (mixture of isomers) [Comp. I-bj, (EZ)-17β-[3-(2-Imidazolin-2-yl)hydrazonopropyl]-5β-androstane-3β,14β-diol], for which the half-inhibitory concentration (IC50) was 251 nM in test [1] (setting [3]) and 3160 nM in test [2].

Take `C[C@]12CC[C@H](O)C[C@H]1CC[C@@H]1[C@@H]2CC[C@]2(C)[C@@H](CCC=NOCCN)CC[C@]12O` (mixture of isomers) [Comp. I-bm, (EZ)-17β-[3-(2-Aminoethoxyimino)propyl]-5β-androstane-3β,14β-diol]: the values for the IC50 in test [1] (setting [3]) and in test [2] (purified Na+,K+-ATPase) were 25.1 nM and 79.4 nM, respectively.

Regarding `CN(C)CCON=CCC[C@H]1CC[C@]2(O)[C@@H]3CC[C@@H]4C[C@@H](O)CC[C@]4(C)[C@H]3CC[C@]12C` (mixture of isomers) [Comp. I-bn, (EZ)-17β-[3-(2-Dimethylaminoethoxyimino)propyl]-5β-androstane-3β,14β-diol], the IC50 was 25.1 nM in test [1] (setting [3]) and 100 nM in test [2] (purified Na+,K+-ATPase).

For `CN(C)CCON=CC[C@@]1(O)CC[C@]2(O)[C@@H]3CC[C@@H]4C[C@@H](O)CC[C@]4(C)[C@H]3CC[C@]12C` (mixture of isomers) [Comp. I-bt, (EZ)-17β-[2-(2-Dimethylaminoethoxyimino)ethyl]-5β-androstane-3β,14β,17α-triol], the IC50 in test [1] (setting [3]) is 794 nM; in test [2] (purified Na+,K+-ATPase), 10000 nM.

For `CN(C)CCON=C/C=C/[C@H]1CC[C@]2(O)[C@@H]3CC[C@@H]4C[C@@H](OCCN5CCCC5)CC[C@]4(C)[C@H]3CC[C@]12C` (mixture of isomers) [Comp. I-by, 3β-[2-(1-Pyrrolidinyl)ethoxy]-17β-[3-(EZ)-(2-dimethylamino-ethoxyimino)-1-(E)-propenyl]-5β-androstane-14β-ol], the results for the IC50 in test [1] (setting [3]) and in test [2] (purified Na+,K+-ATPase) were 20 nM and 31.6 nM, respectively.

Regarding `CC(CO[C@H]1CC[C@@]2(C)[C@H](CC[C@@H]3[C@@H]2CC[C@]2(C)[C@@H](/C=C/C=NOCCN(C)C)CC[C@]32O)C1)N1CCCC1` (mixture of isomers) [Comp. I-ca, 3β-[2-(1-Pyrrolidinyl)propoxy]-17β-[3-(EZ)-(2-dimethylamino-ethoxyimino)-1-(E)-propenyl]-5β-androstane-14β-ol], the IC50 in test [1] (setting [3]) was 31.6 nM; in test [2] (purified Na+,K+-ATPase), 39.8 nM.

Take `C[C@]12CC[C@H](OCCN)C[C@H]1CC[C@@H]1[C@@H]2CC[C@]2(C)[C@@H](/C=C/C=NNC(=N)N)CC[C@]12O` (mixture of isomers) [Comp. I-cb]: the IC50 in test [1] (setting [3]) was 20 nM; in test [2] (purified Na+,K+-ATPase), 100 nM.

As for `CN(C)CCON=C/C=C/[C@H]1CC[C@]2(O)[C@@H]3CC[C@@H]4C[C@@H](OCCN)CC[C@]4(C)[C@H]3CC[C@]12C` (mixture of isomers) [Comp. I-cc, 3β-(2-Aminoethoxy)-17β-[3-(EZ)-(2-dimethylaminoethoxyimino)-1-(E)-propenyl]-5_62-androstane-14β-ol], the IC50 was 20 nM in test [1] (setting [3]) and 31.6 nM in test [2] (purified Na+,K+-ATPase).

As to `CN(C)CCON=CC[C@H]1CC[C@]2(O)[C@@H]3CC[C@@H]4C[C@@H](OCCN5CCCC5)CC[C@]4(C)[C@H]3CC[C@]12C` (mixture of isomers) [Comp. I-cg, 3β-[2-(1-Pyrrolidinyl)ethoxy]-17β-[3-(EZ)-(2-dimethylamino-ethoxyimino)ethyl]-5β-androstane-14β-ol], the IC50 in test [1] (setting [3]) is 31.6 nM; in test [2] (purified Na+,K+-ATPase) it was 100 nM.

As for `CN(C)CCON=CC[C@H]1CC[C@]2(O)[C@@H]3CC[C@@H]4C[C@@H](OCCCN5CCCC5)CC[C@]4(C)[C@H]3CC[C@]12C` (mixture of isomers) [Comp. I-ci, 3β-[3-(1-Pyrrolidinyl)propoxy]-17β-[3-(EZ)-(2-dimethylamino-ethoxyimino)ethyl]-5β-androstane-14β-ol], the IC50 in test [1] was 50.1 nM; in test [2] (purified Na+,K+-ATPase) it was 158 nM.

As to `CN(C)CCON=CC[C@H]1CC[C@]2(O)[C@@H]3CC[C@@H]4C[C@H](O)CC[C@]4(C)[C@H]3CC[C@]12C` (mixture of isomers) [Comp. I-cm, (EZ)-17β-[2-(2-Dimethylaminoethoxyimino)ethyl]-5β-androstane-3α,14β-diol], the concentration for half-maximal inhibition (IC50) in test [1] (setting [3]) was 100 nM; in test [2], 1000 nM.

Turning to `C[C@]12CC[C@H](O)C[C@H]1CC[C@@H]1[C@@H]2CC[C@]2(C)[C@@](O)(/C=C/C=N/NC(=N)N)CC[C@]12O` [Comp. 1-bo, (E,E)-17β-(3-Guanidinoimino-1-propenyl)-5β-androstane-3β,14β,17α-triol], the values for the half-maximal inhibitory concentration (IC50) in test [1] (setting [3]) and in test [2] (purified Na+,K+-ATPase) were 501 nM and 10000 nM, respectively.

On to `C[C@]12CC[C@H](O)C[C@H]1CC[C@@H]1[C@@H]2CC[C@]2(C)[C@@H](/C=C/C=N\NC(=N)N)CC[C@]12O` [Comp. I-ab, 17β-[3-(Z)-Guanidinoimino-1-(E)-propenyl]-5β-androstane-3β,14β-diol], for which the IC50 in test [1] (setting [3]) is 316 nM; in test [2], 3160 nM.

Compound `C[C@]12CC[C@H](O)C[C@H]1CC[C@@H]1[C@@H]2CC[C@]2(C)[C@@H](/C=C/C=N/NC3=NCCN3)CC[C@]12O` [Comp. I-ac, (E,E)-17β-[3-(2-Imidazolin-2-yl)hydrazono-1-propenyl]-5β-androstane-3β,14β-diol] showed a half-maximal inhibitory concentration (IC50) in test [1] of 50.1 nM.

Compound `C[C@]12CC[C@H](O)C[C@H]1CC[C@@H]1[C@@H]2CC[C@]2(C)[C@@H](/C=C/C=N\NC3=NCCN3)CC[C@]12O` [Comp. I-ad, 17β-[3-(Z)-(2-Imidazolin-2-yl)hydrazono-1-(E)-propenyl]-5β-androstane-3β,14β-diol] gave an IC50 in test [1] of 631 nM.

As for `C[C@]12CC[C@H](O)C[C@H]1CC[C@@H]1[C@@H]2CC[C@]2(C)[C@@H](/C=C/C=C/C=N/N=C(N)N)CC[C@]12O` [Comp. I-au], the IC50 in test [1] (setting [3]) is 501 nM.

With `C[C@]12CC[C@H](O)C[C@H]1CC[C@@H]1[C@@H]2CC[C@]2(C)[C@@H](/C=C/C=C/C=N/NC3=NCCCN3)CC[C@]12O` [Comp. I-aw, (E,E,E)-17β-[5-(1,4,5,6-Tetrahydro-2-pyrimidinyl)hydrazono-1,3-pentadienyl]-5β-androstane-3β,14β-diol], the IC50 in test [2] is 15800 nM.
